Measurements taken from patent publication EP2102204B1, “NEW AMINOPYRROLO[1,2- A]INDOLE ET AMINOPYRIDAZINO[1,6-A]INDOLE DERIVATIVES, METHOD FOR PREPARING THE SAME AND PHARMACEUTICAL COMPOSITIONS CONTAINING THE SAME” (Les Laboratoires Servier, priority 2007, dated 2008).

Legend:
[1] = tested on: protéine tyrosine hydroxylase (TH); assay: Induction of tyrosine hydroxylase in the locus coeruleus of mice (immunodetection and image analysis of brain sections); format: in vivo, souris Balb/C; details: i.p. 20 mg/kg, single injection, 3 days after, % par rapport à la valeur moyenne du groupe témoin; for quantité de TH au niveau du LC, coupe 1: coupe 1 du LC (sens antérieur vers postérieur); for quantité de TH au niveau du LC, coupe 2: coupe 2 du LC (sens antérieur vers postérieur); for quantité de TH au niveau du LC, coupe 3: coupe 3 du LC (sens antérieur vers postérieur); for quantité de TH au niveau du LC, coupe 4: coupe 4 du LC (sens antérieur vers postérieur); for quantité de TH au niveau du LC, coupe 5: coupe 5 du LC (sens antérieur vers postérieur); for quantité de TH au niveau du LC, coupe 6: coupe 6 du LC (sens antérieur vers postérieur); for quantité de TH au niveau du LC, coupe 7: coupe 7 du LC (sens antérieur vers postérieur); for quantité de TH au niveau du LC, coupe 8: coupe 8 du LC (sens antérieur vers postérieur)
Description: Il est recherché, parmi les dérivés, ceux qui sont capables d'induire une augmentation de la protéine tyrosine hydroxylase (TH) dans le cerveau de la souris Balb/C, au niveau du locus coeruleus (LC).
Les animaux utilisés sont des souris mâles de la lignée pure Balb/C (Charles River Laboratories), âgées de 7 à 8 semaines au moment du traitement.
Les souris reçoivent une injection unique par voie intrapéritonéale du composé à tester, dissous dans une solution d'HCl 0,04 M (contrôle correspondant : HCl […]) si le composé est suffisamment soluble, ou dans l'huile d'olive 90 % / DMSO 10 % (contrôle correspondant : huile d'olive 90 % / DMSO 10 %) pour les composés insolubles en milieu aqueux.
Trois jours après l'injection de chaque molécule, tous les animaux sont sacrifiés par décapitation. Les cerveaux extraits sont ensuite congelés dans de l'azote liquide et conservés à -80° C.
Des coupes coronales de 8 microns d'épaisseur sont pratiquées le long de l'axe postéro-antérieur du LC et fixées. Les coupes sont transférées sur membranes Immobilon-P. La TH est mesurée par immunodétection et analyse d'image.

[2] = tested on: cellules endothéliales confluentes de capillaires bovins; assay: Prediction of blood-brain barrier passage (permeability across endothelial cell layer on filter); format: in vitro ADME; set-up: key: élevé; intermédiaire; faible; details: 20 µM; LC-MS-MS in lower compartment after 10, 20, 30, 40 et 60 minutes; result as class
Experimental: Les substances sont incubées à 20 µM dans le compartiment supérieur d'une double cuve séparé du compartiment inférieur soit par un filtre de polycarbonate seul, soit par le même filtre recouvert de cellules endothéliales confluentes de capillaires bovins. L'évaluation de la cinétique de perméabilité est réalisée par quantification LC-MS-MS de la substance inchangée dans le compartiment inférieur après 10, 20, 30, 40 et 60 minutes. Les dérivés testés présentent un passage généralement élevé de la BHE favorisant la cible neurologique. Les résultats sont rendus sous forme de classes : élevé, intermédiaire, faible. Ainsi, l'exemple 17 présente un passage élevé de la BHE.

[3] = target: 5HT2A (Homo sapiens, UniProt P28223); assay: Receptor affinity, displacement of labelled specific ligand; format: binding; details: for inhibition at 10 µM: read-out: % d'inhibition 5HT2A, concentration 10^-5 M
5HT2A, sequence (P28223 whole entry, species assumed): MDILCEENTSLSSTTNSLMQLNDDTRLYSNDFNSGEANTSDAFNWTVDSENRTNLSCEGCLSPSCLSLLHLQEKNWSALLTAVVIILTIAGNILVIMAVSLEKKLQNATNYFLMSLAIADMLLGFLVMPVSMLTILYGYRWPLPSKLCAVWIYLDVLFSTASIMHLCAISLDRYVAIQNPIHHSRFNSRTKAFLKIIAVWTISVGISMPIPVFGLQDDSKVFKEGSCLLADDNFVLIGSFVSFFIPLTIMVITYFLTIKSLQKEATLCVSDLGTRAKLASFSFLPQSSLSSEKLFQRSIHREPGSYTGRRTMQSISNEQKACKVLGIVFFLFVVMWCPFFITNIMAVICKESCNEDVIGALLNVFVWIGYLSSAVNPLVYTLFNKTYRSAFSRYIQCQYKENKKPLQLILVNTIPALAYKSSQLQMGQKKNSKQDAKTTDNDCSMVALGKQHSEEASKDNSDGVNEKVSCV
Description: (§1) L'affinité pour les récepteurs est déterminée selon les méthodes habituelles de relation entre le ligand spécifique et le récepteur, qui peut être d'origine animale ou un recombinant humain. Elle a été déterminée par la méthode du déplacement du ligand spécifique marqué par le composé étudié, et exprimée par la constante de dissociation Ki. L'affinité réceptorielle pour 28 récepteurs classiques a ainsi été étudiée. L'étude montre que l'induction de TH observée ne passe pas par une affinité vis-à-vis des récepteurs habituellement touchés par les produits psychotropes, comme les récepteurs adrénergiques alpha (de type α2), 5HT (de type 5HT2A), dopaminergiques (de type D1 et D2). Quelques dérivés montrent une affinité non négligeable pour les récepteurs sigma (σ) (ligand halopéridol) ou muscarinique (M). TABLEAU II

[4] = tested on: récepteurs adrénergiques alpha (de type α2); assay: as above; format: binding; details: concentration 10^-5 M
Description: as §1

[5] = tested on: récepteurs sigma (σ); assay: Receptor affinity, displacement of labelled specific ligand (haloperidol); format: binding; details: concentration 10^-5 M
Description: as §1

[6] = target: D1 (Homo sapiens, UniProt P21728); assay: Receptor affinity, displacement of labelled specific ligand; format: binding; details: concentration 10^-5 M
D1, sequence (P21728 whole entry): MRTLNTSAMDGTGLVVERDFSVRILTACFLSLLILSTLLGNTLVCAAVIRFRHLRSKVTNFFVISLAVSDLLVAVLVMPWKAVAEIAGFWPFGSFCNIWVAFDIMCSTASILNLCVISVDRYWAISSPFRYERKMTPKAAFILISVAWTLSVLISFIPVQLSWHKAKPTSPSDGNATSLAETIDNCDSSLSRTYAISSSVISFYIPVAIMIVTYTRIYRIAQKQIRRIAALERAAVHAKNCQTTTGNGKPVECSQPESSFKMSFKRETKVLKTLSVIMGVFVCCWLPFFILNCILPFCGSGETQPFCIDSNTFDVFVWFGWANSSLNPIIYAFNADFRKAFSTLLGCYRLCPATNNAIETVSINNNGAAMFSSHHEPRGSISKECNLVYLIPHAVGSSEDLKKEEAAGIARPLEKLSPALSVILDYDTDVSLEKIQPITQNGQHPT
Description: as §1

passage de la BHE [2]	Compound	quantité de TH au niveau du LC, coupe 1 [1]	quantité de TH au niveau du LC, coupe 2 [1]	quantité de TH au niveau du LC, coupe 3 [1]	quantité de TH au niveau du LC, coupe 4 [1]	quantité de TH au niveau du LC, coupe 5 [1]	quantité de TH au niveau du LC, coupe 6 [1]	quantité de TH au niveau du LC, coupe 7 [1]	quantité de TH au niveau du LC, coupe 8 [1]	inhibition at 10 µM [3]	% d'inhibition α2 [4]	% d'inhibition σ [5]	inhibition at 0.1 µM ([3]; read-out: % d'inhibition 5HT2A, concentration 10^-7 M)	% d'inhibition D1 [6]
élevé	CCCN1CC[C@H]2c3ccccc3N3NC(=O)C[C@@H]1[C@@H]23 (racemic) [Exemple 17, (3aRS,6aSR,10cRS)-4-Propyl 3a,4,5,6,6a,10c-hexahydro-3H-1,4,10b-triazafluoranthén-2-one]	73%	72%	56%	38%	34%	36%	13%	3%					
	CN1CCC[C@@H]2C(=O)N3c4ccc(Cl)cc4C[C@H]3[C@@H]21 (racemic) [Exemple 27, (4aSR,11aSR,11bRS)-9-Chloro-1-méthyl-1,2,3,4,4a,11,11a,11b-octahydropyrido[2',3':3,4]pyrrolo[1,2-a]indol-5-one]	55%	67%	54%	46%	26%	29%	3%	5%	84%	10%	10%		
	CN1CCC[C@@H]2C(=O)N3c4ccccc4C[C@H]3[C@@H]21 [Exemple 45, (4aS,11aS,11bR)-1-Méthyl-1,2,3,4,4a,11,11a,11b-octahydropyrido[2',3':3,4]pyrrolo[1,2-a]indol-5-one]									92%	23%		13%	49%
